Assay results as given in US8039623B2, “Inhibitors of serine proteases, particularly HCV NS3-NS4A protease” (Vertex Pharmaceuticals Incorporated, priority 2003, dated 2011).

The compounds below were run against HCV NS3-NS4A protease (tNS3 with KK4A) (Hepatitis C virus genotype 1a, UniProt P27958) (assay: HCV Enzyme Assay Protocol (HPLC microbore separation of 5AB substrate and products)). Details: 25 nM tNS3, 25 μM KK4A, 25 μM 5AB substrate, 20 min at 30° C.; read-out: Ki range.
Assay type: biochemical
Description: HCV Enzyme Assay Protocol
HPLC Microbore method for separation of 5AB substrate and products
• NH2-Glu-Asp-Val-Val-(alpha)Abu-Cys-Ser-Met-Ser-Tyr-COOH
A stock solution of 20 mM 5AB (or concentration of your choice) was made in DMSO w/0.2M DTT. This was stored in aliquots at −20° C.
Buffer: 50 mM HEPES, pH 7.8; 20% glycerol; 100 mM NaCl
Total assay volume was 100 μL
The buffer, KK4A, DTT, and tNS3 were combined; distributed 78 μL each into wells of 96 well plate. This was incubated at 30° C. for ˜5-10 min.
2.5 μL of appropriate concentration of test compound was dissolved in DMSO (DMSO only for control) and added to each well. This was incubated at room temperature for 15 min.
Initiated reaction by addition of 20 μL of 250 μM 5 AB substrate (25 μM concentration is equivalent or slightly lower than the Km for 5 AB).
Incubated for 20 min at 30° C.
Terminated reaction by addition of 25 μL of 10% TFA
Transferred 120 μL aliquots to HPLC vials
Separated SMSY product from substrate and KK4A by the following method:
Microbore Separation Method:
Instrumentation: Agilent 1100
• Degasser G1322A • Binary pump G1312A • Autosampler G1313A • Column thermostated chamber G1316A • Diode array detector G1315A Column • Phenonex Jupiter; 5 micron C18; 300 angstroms; 150×2 mm; P/O • 00F-4053-B0 • Column thermostat: 40 C • Injection volume: 100 μL • Solvent A=HPLC grade water+0.1% TFA • Solvent B=HPLC grade acetonitrile+0.1% TFA
• Stop time: 17 min • Post-run time: 10 min.

HCV NS3-NS4A protease (tNS3 with KK4A), sequence (P27958 1658-1711): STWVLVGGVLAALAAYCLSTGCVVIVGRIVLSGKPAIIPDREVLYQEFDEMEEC
HCV NS3-NS4A protease (tNS3 with KK4A), sequence (P27958 1027-1208): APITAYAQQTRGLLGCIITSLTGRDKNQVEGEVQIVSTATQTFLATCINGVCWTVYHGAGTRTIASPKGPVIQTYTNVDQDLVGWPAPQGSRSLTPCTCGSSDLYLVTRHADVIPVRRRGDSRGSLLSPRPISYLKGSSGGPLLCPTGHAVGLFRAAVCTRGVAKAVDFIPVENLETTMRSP

**Q.** How did the Ki turn out when CCC[C@H](NC(=O)[C@@H]1CC2(CN1C(=O)[C@@H](NC(=O)[C@@H](NC(=O)c1cnccn1)C1CCCCC1)C(C)(C)C)SCCCS2)C(=O)NS(=O)(=O)c1ccccc1 [Compound 1] was run?
**A.** Its Ki is over 5 µM.

**Q.** How did the Ki turn out when CCC[C@H](NC(=O)[C@@H]1C[C@@H](Oc2ccc(Cl)cn2)CN1C(=O)[C@@H](NC(=O)[C@@H](NC(=O)c1cnccn1)C1CCCCC1)C(C)(C)C)C(=O)NS(=O)(=O)c1ccccc1 [Compound 2] was run?
**A.** Its Ki is over 5 µM.

**Q.** For CCC[C@H](NC(=O)[C@@H]1CC2(CN1C(=O)[C@@H](NC(=O)[C@@H](NC(=O)c1[nH]c(C)c(C)c1C(C)=O)C1CCCCC1)C(C)(C)C)SCCCS2)C(=O)NS(=O)(=O)c1ccccc1 [Compound 3], which Ki is on record?
**A.** The Ki was 1 to 5 µM.
